Laboratory results from US11760773B2, “Small molecule drug conjugates of gemcitabine monophosphate” (MaveriX Oncology, Inc., priority 2018, dated 2023).
Like-named read-outs stand apart in the source and are kept apart here.

Columns and labels:
[1] = Comparative plasma PK of Compound 1 versus Int 1-4 in male CD-1 mice (study b); format: in vivo; conditions: male, CD-1, mouse, iv
Description: Objectives: to compare the plasma pharmacokinetics and stability of Compound 1 with its non-phosphorylated SMDC analog (Int 1-4) and in plasma following a single intravenous infusion administration of Compound 1 at 11.6 mg/kg and 23.2 mg/kg with Int 1-4 (formulation F1 & F2) at 10.0 mg/kg in male CD-1 mice
PK measurements: compare PK parameters C0, CL, Vdss, Cmax, tmax, t1/2, AUC(0-t), AUC(0-inf), MRT(0-t), MRT(0-inf) for Compound 1 and Int 1-4

[2] = Int 1-4 plasma PK in the male cynomolgus monkey (study f); format: in vivo; conditions: for C0: read-out: C0; for MRT inf: read-out: MRT0-inf; for MRT last: read-out: MRT0-last; for Vd: read-out: Vdss
Description: Objectives: to compare the plasma pharmacokinetics and stability of Int 1-4 in plasma following single intravenous infusion administration of Int 1-4 at 5 mg/kg and 10 mg/kg in the male cynomolgus monkey
PK measurements: compare PK parameters C0, CL, Vdss, Cmax, tmax, t, AUC(0-t), AUC(0-inf), MRT(0-t), MRT(0-inf) for Int 1-4

[3] = Int 1-4 and gemcitabine comparative PK in male cynomolgus monkey (study g); format: in vivo; conditions: plasma, male cynomolgus monkey; for AUC(0-inf): read-out: AUC0-inf; for MRT inf: read-out: MRT0-inf; for MRT last: read-out: MRT0-last; for Vd: read-out: Vdss
Description: Objectives: to compare the plasma pharmacokinetics and stability of Int 1-4 versus gemcitabine in plasma following single intravenous infusion administration of Int 1-4 at 5 mg/kg and 10 mg/kg with equimolar gemcitabine at 2.65 mg/kg and 5.29 mg/kg in male cynomolgous monkeys
PK measurements: compare PK parameters C0, CL, Vdss, Cmax, tmax, t1/2, AUC(0-t), AUC(0-inf), MRT(0-t), MRT(0-inf) for Int 1-4 with gemcitabine

[4] = Compound 1 and gemcitabine plasma PK in the male cynomolgus monkey (study h); format: in vivo; conditions: plasma; for AUC(0-inf): read-out: AUC0-inf; for MRT inf: read-out: MRT0-inf; for MRT last: read-out: MRT0-last
Description: Objectives: to compare the plasma pharmacokinetics and stability of the Compound 1 with Int 1-4 and in plasma following a single intravenous infusion administration of Compound 1 at 5 mg/kg and 10 mg/kg with equimolar gemcitabine at 2.28 mg/kg in male cynomolgous monkeys.
PK measurements: compare PK parameters C0, CL, Vdss, Cmax, tmax, t1/2, AUC(0-t), AUC(0-inf), MRT(0-t), MRT(0-inf) for Compound 1 and Int 1-4 with gemcitabine.

[5] = Comparative PK of Int 1-4 versus gemcitabine in rat plasma (study i); format: in vivo, Sprague-Dawley rats; conditions: for half-life: Sprague-Dawley, rat, iv; for MRT inf: read-out: MRT0-inf; for MRT last: read-out: MRT0-last
From the text: PK measurements: compare PK parameters C0, CL, Vdss, Cmax, tmax, t1/2, AUC(0-t), AUC(0-inf), MRT(0-t), MRT(0-inf) for Int 1-4 and gemcitabine.

[6] = Int 1-4 dog plasma PK (study j); format: in vivo; conditions: male beagle dog; for AUC(0-inf): read-out: AUC0-inf; for MRT inf: read-out: MRT0-inf; for MRT last: read-out: MRT0-last
Description: Objectives: to compare the plasma pharmacokinetics and stability of Int 1-4 in plasma following single intravenous infusion administration of t 1-4 at 10 mg/kg and 20 mg/kg in the male Beagle dog.

[7] = 10 mg/kg, after iv Int 1-4 10.0 mg/kg, Formulation 1
[8] = 10 mg/kg, after iv Int 1-4 10.0 mg/kg, Formulation 2
[9] = 11.6 mg/kg, after iv Compound 1 11.6 mg/kg
[10] = 23.2 mg/kg, after iv Compound 1 23.2 mg/kg
[11] = after iv Int 1-4 5 mg/kg (study f)
[12] = after iv Int 1-4 10 mg/kg (study f)
[13] = after iv Int 1-4 5 mg/kg (study g)
[14] = after iv Int 1-4 10 mg/kg (study g)
[15] = after iv gemcitabine 2.65 mg/kg
[16] = after iv gemcitabine 2.28 mg/kg
[17] = plasma, Sprague-Dawley rat, after iv Int 1-4 10.0 mg/kg
[18] = plasma, Sprague-Dawley rat, after iv gemcitabine 4.47 mg/kg
[19] = after iv Int 1-4 10 mg/kg (study j)
[20] = after iv Int 1-4 20 mg/kg (study j)

Compound `Nc1ccn([C@@H]2O[C@H](CO)[C@@H](O)C2(F)F)c(=O)n1` [Gemcitabine, gemcitabine] has an AUC(0-t) [1, 7] of 98.6 ng·h/mL, a half-life [1, 7] of 1.62 h and an AUC(0-inf) ([1]; 10 mg/kg, after iv Int 1-4 10.0 mg/kg, Formulation 1, read-out: AUC0-inf) of 120 ng·h/mL. For the same compound, the Cmax ([1]; 10 mg/kg, after iv Int 1-4 10.0 mg/kg, Formulation 1, read-out: Cmax) was 107 ng/mL, the MRT inf ([1]; 10 mg/kg, after iv Int 1-4 10.0 mg/kg, Formulation 1, read-out: MRT0-inf) was 1.98 h and the MRT last ([1]; 10 mg/kg, after iv Int 1-4 10.0 mg/kg, Formulation 1, read-out: MRT0-last) was 1.15 h. The Tmax ([1]; 10 mg/kg, after iv Int 1-4 10.0 mg/kg, Formulation 1, read-out: Tmax) was 3.67 min, the AUC(0-t) [1, 8] was 85.1 ng·h/mL and the half-life [1, 8] was 1.66 h. It also gave an AUC(0-inf) ([1]; 10 mg/kg, after iv Int 1-4 10.0 mg/kg, Formulation 2, read-out: AUC0-inf) of 102 ng·h/mL, a Cmax ([1]; 10 mg/kg, after iv Int 1-4 10.0 mg/kg, Formulation 2, read-out: Cmax) of 93.6 ng/mL and an MRT inf ([1]; 10 mg/kg, after iv Int 1-4 10.0 mg/kg, Formulation 2, read-out: MRT0-inf) of 2.1 h. The MRT last ([1]; 10 mg/kg, after iv Int 1-4 10.0 mg/kg, Formulation 2, read-out: MRT0-last) was 1.25 h, the Tmax ([1]; 10 mg/kg, after iv Int 1-4 10.0 mg/kg, Formulation 2, read-out: Tmax) was 2 min and the AUC(0-t) [1, 9] was 97.9 ng·h/mL. For the same compound, the half-life [1, 9] was 1.04 h, the AUC(0-inf) ([1]; 11.6 mg/kg, after iv Compound 1 11.6 mg/kg, read-out: AUC0-inf) was 112 ng·h/mL and the Cmax ([1]; 11.6 mg/kg, after iv Compound 1 11.6 mg/kg, read-out: Cmax) was 152 ng/mL. It also gave an MRT inf ([1]; 11.6 mg/kg, after iv Compound 1 11.6 mg/kg, read-out: MRT0-inf) of 1.41 h, an MRT last ([1]; 11.6 mg/kg, after iv Compound 1 11.6 mg/kg, read-out: MRT0-last) of 1.01 h and a Tmax ([1]; 11.6 mg/kg, after iv Compound 1 11.6 mg/kg, read-out: Tmax) of 1.5 min. It also gave an AUC(0-t) [1, 10] of 202 ng·h/mL, a half-life [1, 10] of 1.03 h and an AUC(0-inf) ([1]; 23.2 mg/kg, after iv Compound 1 23.2 mg/kg, read-out: AUC0-inf) of 218 ng·h/mL. It also gave a Cmax ([1]; 23.2 mg/kg, after iv Compound 1 23.2 mg/kg, read-out: Cmax) of 222 ng/mL, an MRT inf ([1]; 23.2 mg/kg, after iv Compound 1 23.2 mg/kg, read-out: MRT0-inf) of 1.4 h and an MRT last ([1]; 23.2 mg/kg, after iv Compound 1 23.2 mg/kg, read-out: MRT0-last) of 1.11 h. For the same compound, the Tmax ([1]; 23.2 mg/kg, after iv Compound 1 23.2 mg/kg, read-out: Tmax) was 2 min, the clearance [2, 11] was 3.71 mL/min/kg and the half-life [2, 11] was 2.82 min. It also gave a C0 [2, 11] of 20.5 ng/mL, an MRT inf [2, 11] of 20.5 h and an MRT last [2, 11] of 0.19 h. It also gave a Vd [2, 11] of 0.11 L/kg, a clearance [2, 12] of 15.5 mL/min/kg and a half-life [2, 12] of 4.8 min. For the same compound, the C0 [2, 12] was 53.4 ng/mL, the MRT inf [2, 12] was 53.4 h and the MRT last [2, 12] was 0.3 h. It also gave a Vd [2, 12] of 0.19 L/kg, an AUC(0-t) [3, 13] of 5.37 ng·h/mL and a half-life [3, 13] of 0.15 h. For the same compound, the AUC(0-inf) [3, 13] was 8.13 ng·h/mL, the MRT inf [3, 13] was 0.24 h and the MRT last [3, 13] was 0.15 h. It also gave a Vd [3, 13] of 0.349 L/kg, an AUC(0-t) [3, 14] of 16.2 ng·h/mL and a half-life [3, 14] of 0.18 h. For the same compound, the AUC(0-inf) [3, 14] was 17.5 ng·h/mL, the MRT inf [3, 14] was 0.26 h and the MRT last [3, 14] was 0.21 h. It also gave an AUC(0-t) [3, 15] of 154 ng·h/mL, a C0 [3, 15] of 17000 ng/mL and a clearance [3, 15] of 323 mL/min/kg. The half-life [3, 15] was 0.02 h, the AUC(0-inf) [3, 15] was 154 ng·h/mL and the MRT inf [3, 15] was 0.01 h. It also gave an MRT last [3, 15] of 0.01 h, a Vd [3, 15] of 0.221 L/kg and an AUC(0-t) ([4]; after iv Compound 1 5 mg/kg) of 7.85 ng·h/mL. For the same compound, the half-life ([4]; after iv Compound 1 5 mg/kg) was 7.8 min, the AUC(0-inf) ([4]; after iv Compound 1 5 mg/kg) was 7 ng·h/mL and the MRT inf ([4]; after iv Compound 1 5 mg/kg) was 0.23 h. For the same compound, the MRT last ([4]; after iv Compound 1 5 mg/kg) was 0.19 h, the AUC(0-t) [4, 16] was 164 ng·h/mL and the C0 [4, 16] was 13400 ng/mL. The clearance [4, 16] was 247 mL/min/kg, the half-life [4, 16] was 1.2 min and the AUC(0-inf) [4, 16] was 165 ng·h/mL. The MRT inf [4, 16] was 0.02 h, the MRT last [4, 16] was 0.02 h and the Vd ([4]; after iv gemcitabine 2.28 mg/kg, read-out: Vdss) was 0.231 L/kg. It also gave a half-life ([5]; plasma, 4.47 mg/kg, plasma, Sprague-Dawley rat, after iv gemcitabine 4.47 mg/kg) of about 3.3 h, a half-life ([5]; plasma, 10 mg/kg, plasma, Sprague-Dawley rat, after iv Int 1-4 10.0 mg/kg) of about 9.43 h and an AUC0-inf/AUC0-last [5, 17] of 235%. It also gave an AUC(0-inf) [5, 17] of 6000 ng·h/mL, an AUC(0-t) [5, 17] of 2760 ng·h/mL and a T1/2 [5, 17] of 9.43 h. For the same compound, the MRT inf [5, 17] was 13.8 h, the MRT last [5, 17] was 3.38 h and the clearance ([5]; plasma, Sprague-Dawley rat, after iv gemcitabine) was 4.36 mL/min/kg. For the same compound, the AUC0-inf/AUC0-last [5, 18] was 122%, the AUC(0-inf) [5, 18] was 18000 ng·h/mL and the AUC(0-t) [5, 18] was 14700 ng·h/mL. For the same compound, the C0 [5, 18] was 8410 ng/mL, the T1/2 [5, 18] was 3.26 h and the MRT inf [5, 18] was 4.63 h. The MRT last [5, 18] was 2.82 h, the Vd ([5]; plasma, Sprague-Dawley rat, after iv gemcitabine 4.47 mg/kg, read-out: Vdss) was 1.21 L/kg and the “plasma half-life in rats relative to mice” value ([5]; rat versus mouse plasma, iv gemcitabine) was 3 ×. The AUC(0-t) [6, 19] was 6160 ng·h/mL, the half-life [6, 19] was 3.1 h and the AUC(0-inf) [6, 19] was 6180 ng·h/mL. The MRT inf [6, 19] was 3.56 h, the MRT last [6, 19] was 3.47 h and the AUC(0-t) [6, 20] was 7690 ng·h/mL. For the same compound, the half-life [6, 20] was 3.55 h, the AUC(0-inf) [6, 20] was 7880 ng·h/mL and the MRT inf [6, 20] was 3.28 h. The MRT last [6, 20] was 2.69 h.
